One may read the EC50 as the concentration needed to bring the measured effect to its halfway point.

The text below walks through data of patent US20130143835A1, “HCV Polymerase Inhibitors” (MEDIVIR AB, priority 2011, published 2013).

Structures are written as SMILES. Bounds are passed on as bounds.

This experiment concerns HCV type 1b replicon in Huh-7 luc/neo (Huh-Luc) cells. The experiment can be described thus: HCV replicon assay (Huh-Luc cells, luciferase read-out). In kind it is cell-based. The following applies: inhibition of HCV replication, three days incubation, luciferase activity. From the text: The in vitro antiviral activity against HCV of the compounds of formula I can be tested in a cellular HCV replicon system based on Lohmann et al. (1999) Science 285:110-113, with the further modifications described by Krieger et al. (2001) Journal of Virology 75: 4614-4624 (incorporated herein by reference), which is further exemplified in the examples section. This model, while not a complete infection model for HCV, is widely accepted as the most robust and efficient model of autonomous HCV RNA replication currently available. It will be appreciated that it is important to distinguish between compounds that specifically interfere with HCV functions from those that exert cytotoxic or cytostatic effects in the HCV replicon model, and as a consequence cause a decrease in HCV RNA or linked reporter enzyme concentration. Assays are known in the field for the evaluation of cellular cytotoxicity based for example on the activity of mitochondrial enzymes using fluorogenic redox dyes such as resazurin. Furthermore, cellular counter screens exist for the evaluation of non-selective inhibition of linked reporter gene activity, such as firefly luciferase. Appropriate cell types can be equipped by stable transfection with a luciferase reporter gene whose expression is dependent on a constitutively active gene promoter, and such cells can be used as a counter-screen to eliminate non-selective inhibitors.
The compounds of formula I may be examined for activity in the inhibition of HCV RNA replication in a cellular assay aimed at identifying compounds that inhibit a HCV functional cellular replicating cell line, also known as HCV replicons. A suitable cellular assay is based on a bicistronic expression construct, as described by Lohmann et al. (1999), Science vol. 285 pp. 110-113 with modifications described by Krieger et al. (2001), Journal of Virology 75: 4614-4624, in a multi-target screening strategy.
The assay utilizes the stably transfected cell line Huh-7 luc/neo (hereafter referred to as Huh-Luc). This cell line harbors an RNA encoding a bicistronic expression construct comprising the wild type NS3-NS5B regions of HCV type 1b translated from an Internal Ribosome Entry Site (IRES) from encephalomyocarditis virus (EMCV), preceded by a reporter portion (FfL-luciferase), and a selectable marker portion (neo^R, neomycine phosphotransferase). The construct is bordered by 5′ and 3′ NTRs (non-translated regions) from HCV type 1b. Continued culture of the replicon cells in the presence of G418 (neo^R) is dependent on the replication of the HCV RNA. The stably transfected replicon cells that express HCV RNA, which replicates autonomously and to high levels, encoding inter alia luciferase, are used for screening the antiviral compounds.
The replicon cells are plated in 384 well plates in the presence of the test and control compounds which are added in various concentrations. Following an incubation of three days, HCV replication is measured by assaying luciferase activity (using standard luciferase assay substrates and reagents and a Perkin Elmer ViewLux™ ultraHTS microplate imager). Replicon cells in the control cultures have high luciferase expression in the absence of any inhibitor. The inhibitory activity of a compound on luciferase activity is monitored on the Huh-Luc cells, enabling a dose-response curve for each test compound. EC50 values are then calculated, which value represents the amount of the compound required to decrease the level of detected luciferase activity by 50%, or more specifically, the ability of the genetically linked HCV replicon RNA to replicate.
(A replicon is a self-replicating genome or part of one, used to study replication in cells.)

For the compound `CC(C)OC(=O)[C@H](C)NP(=O)(OC[C@H]1O[C@@H](n2ccc(=O)[nH]c2=O)[C@](C)(N)[C@@H]1O)Oc1ccccc1` (single isomer, unassigned) [Example 9B], the concentration giving a half-maximal response (EC50) stood at 920 nM.

`CCCC(CCC)COC(=O)[C@H](C)NP(=O)(OC[C@H]1O[C@@H](n2ccc(=O)[nH]c2=O)[C@](C)(N)[C@@H]1O)Oc1ccccc1` (single isomer, unassigned) [Example 14A]: the EC50 is 1600 nM.

Regarding `CC(C)COC(=O)[C@H](C)NP(=O)(OC[C@H]1O[C@@H](n2ccc(=O)[nH]c2=O)[C@](C)(N)[C@@H]1O)Oc1ccccc1` (single isomer, unassigned) [Example 17A], the EC50 was determined as 2600 nM.

Turning to `C[C@H](NP(=O)(OC[C@H]1O[C@@H](n2ccc(=O)[nH]c2=O)[C@](C)(N)[C@@H]1O)Oc1ccccc1)C(=O)OC1CCCCCCC1` (single isomer, unassigned) [Example 10A], the EC50 was found to be 15000 nM.

As to `COC(=O)[C@H](C)NP(=O)(OC[C@H]1O[C@@H](n2ccc(=O)[nH]c2=O)[C@](C)(N)[C@@H]1O)Oc1ccccc1` (single isomer, unassigned) [Example 16A], the half-maximal effective concentration (EC50) came out at 5100 nM.

On to `C[C@H](NP(=O)(OC[C@H]1O[C@@H](n2ccc(=O)[nH]c2=O)[C@](C)(N)[C@@H]1O)Oc1ccccc1)C(=O)OC1CCCCC1` (single isomer, unassigned) [Example 12B], for which the concentration giving a half-maximal response (EC50) was 130 nM.

With `C[C@H](NP(=O)(OC[C@H]1O[C@@H](n2ccc(=O)[nH]c2=O)[C@](C)(N)[C@@H]1O)Oc1ccccc1)C(=O)OCc1ccccc1` (single isomer, unassigned) [Example 15A], the 50% effective concentration (EC50) came to 3100 nM.

Regarding `C[C@H](NP(=O)(OC[C@H]1O[C@@H](n2ccc(=O)[nH]c2=O)[C@](C)(N)[C@@H]1O)Oc1ccccc1)C(=O)OC1CCC1` (single isomer, unassigned) [Example 8A], the EC50 turned out to be 1900 nM.

Consider `CC[C@@H](C)OC(=O)[C@H](C)NP(=O)(OC[C@H]1O[C@@H](n2ccc(=O)[nH]c2=O)[C@](C)(N)[C@@H]1O)Oc1ccccc1` (single isomer, unassigned) [Example 21B], for which the EC50 was found to be 740 nM.

In the case of `CCOC(=O)[C@H](C)NP(=O)(OC[C@H]1O[C@@H](n2ccc(=O)[nH]c2=O)[C@](C)(N)[C@@H]1O)Oc1ccccc1` (single isomer, unassigned) [Example 11A], the concentration giving a half-maximal response (EC50) came out at 6400 nM.

Regarding `C[C@H](NP(=O)(OC[C@H]1O[C@@H](n2ccc(=O)[nH]c2=O)[C@](C)(N)[C@@H]1O)Oc1ccccc1)C(=O)OCC1CC1` (single isomer, unassigned) [Example 26B], the EC50 was 760 nM.

For `C[C@H](NP(=O)(OC[C@H]1O[C@@H](n2ccc(=O)[nH]c2=O)[C@](C)(N)[C@@H]1O)Oc1ccccc1)C(=O)OC1CCCCCC1` (single isomer, unassigned) [Example 7A], the concentration giving a half-maximal response (EC50) amounted to 3000 nM.

On to `CCCCCOC(=O)[C@H](C)NP(=O)(OC[C@H]1O[C@@H](n2ccc(=O)[nH]c2=O)[C@](C)(N)[C@@H]1O)Oc1ccccc1` (single isomer, unassigned) [Example 18A], for which the EC50 amounted to 1800 nM.

As for `CCCCOC(=O)[C@H](C)NP(=O)(OC[C@H]1O[C@@H](n2ccc(=O)[nH]c2=O)[C@](C)(N)[C@@H]1O)Oc1ccccc1` (single isomer, unassigned) [Example 19B], the EC50 turned out to be 290 nM.

On to `CCCCOC(=O)[C@H](C)NP(=O)(OC[C@H]1O[C@@H](n2ccc(=O)[nH]c2=O)[C@](C)(N)[C@@H]1O)Oc1ccccc1` (single isomer, unassigned) [Example 19A], for which the EC50 was 1400 nM.

As for `C[C@H](NP(=O)(OC[C@H]1O[C@@H](n2ccc(=O)[nH]c2=O)[C@](C)(N)[C@@H]1O)Oc1ccccc1)C(=O)OCCC(C)(C)C` (single isomer, unassigned) [Example 6B], the 50% effective concentration (EC50) worked out at 490 nM.

On to `CC[C@@H](C)OC(=O)[C@H](C)NP(=O)(OC[C@H]1O[C@@H](n2ccc(=O)[nH]c2=O)[C@](C)(N)[C@@H]1O)Oc1ccccc1` (single isomer, unassigned) [Example 21A], for which the EC50 was found to be 5100 nM.

Take `CCC(CC)COC(=O)[C@H](C)NP(=O)(OC[C@H]1O[C@@H](n2ccc(=O)[nH]c2=O)[C@](C)(N)[C@@H]1O)Oc1ccccc1` (single isomer, unassigned) [Example 20A]: the EC50 came out at 1600 nM.

Turning to `C[C@H](NP(=O)(OC[C@H]1O[C@@H](n2ccc(=O)[nH]c2=O)[C@](C)(N)[C@@H]1O)Oc1ccccc1)C(=O)OCC1CCCC1` (single isomer, unassigned) [Example 27A], the 50% effective concentration (EC50) is 2200 nM.

As for `C[C@H](NP(=O)(OC[C@H]1O[C@@H](n2ccc(=O)[nH]c2=O)[C@](C)(N)[C@@H]1O)Oc1ccccc1)C(=O)OC1CCCC1` (single isomer, unassigned) [Example 5B], the EC50 amounted to 470 nM.

Turning to `C[C@H](NP(=O)(OC[C@H]1O[C@@H](n2ccc(=O)[nH]c2=O)[C@](C)(N)[C@@H]1O)Oc1ccccc1)C(=O)OC1CCCCCC1` (single isomer, unassigned) [Example 7B], the EC50 worked out at 190 nM.

Regarding `CC(C)COC(=O)[C@H](C)NP(=O)(OC[C@H]1O[C@@H](n2ccc(=O)[nH]c2=O)[C@](C)(N)[C@@H]1O)Oc1ccccc1` (single isomer, unassigned) [Example 17B], the EC50 came to 600 nM.

As for `CCCC(CCC)COC(=O)[C@H](C)NP(=O)(OC[C@H]1O[C@@H](n2ccc(=O)[nH]c2=O)[C@](C)(N)[C@@H]1O)Oc1ccccc1` (single isomer, unassigned) [Example 14B], the 50% effective concentration (EC50) amounted to 420 nM.

Turning to `CCC[C@H](C)OC(=O)[C@@H](C)NP(=O)(OC[C@H]1O[C@@H](n2ccc(=O)[nH]c2=O)[C@](C)(N)[C@@H]1O)Oc1ccccc1` (single isomer, unassigned) [Example 25B], the EC50 came to 380 nM.

Take `CCCOC(=O)[C@H](C)NP(=O)(OC[C@H]1O[C@@H](n2ccc(=O)[nH]c2=O)[C@](C)(N)[C@@H]1O)Oc1ccccc1` (single isomer, unassigned) [Example 24B]: the concentration for a half-maximal effect (EC50) amounted to 1500 nM.

Take `CC(C)OC(=O)[C@H](C)NP(=O)(OC[C@H]1O[C@@H](n2ccc(=O)[nH]c2=O)[C@](C)(N)[C@@H]1O)Oc1ccccc1` (stereo partly drawn) [Example 2]: the 50% effective concentration (EC50) turned out to be 2000 nM.

In the case of `C[C@H](NP(=O)(OC[C@H]1O[C@@H](n2ccc(=O)[nH]c2=O)[C@](C)(N)[C@@H]1O)Oc1ccccc1)C(=O)OCC(C)(C)C` (single isomer, unassigned) [Example 13B], the concentration giving a half-maximal response (EC50) came to 300 nM.

Regarding `C[C@H](NP(=O)(OC[C@H]1O[C@@H](n2ccc(=O)[nH]c2=O)[C@](C)(N)[C@@H]1O)Oc1ccccc1)C(=O)OCc1ccccc1` (single isomer, unassigned) [Example 15B], the EC50 was 660 nM.

For `C[C@H](NP(=O)(OC[C@H]1O[C@@H](n2ccc(=O)[nH]c2=O)[C@](C)(N)[C@@H]1O)Oc1ccccc1)C(=O)OC1CCCCCCC1` (single isomer, unassigned) [Example 10B], the EC50 amounted to 290 nM.

Take `C[C@H](NP(=O)(OC[C@H]1O[C@@H](n2ccc(=O)[nH]c2=O)[C@](C)(N)[C@@H]1O)Oc1ccccc1)C(=O)OC1CCCCC1` (single isomer, unassigned) [Example 12A]: the EC50 amounted to 380 nM.

Regarding `C[C@@]1(N)[C@H](O)[C@@H](CO)O[C@H]1n1ccc(=O)[nH]c1=O` [Example 1, 1-((2R,3R,4S,5R)-3-amino-4-hydroxy-5-(hydroxymethyl)-3-methyltetrahydrofuran-2-yl)pyrimidine-2,4(1H,3H)-dione], the EC50 (Hepatitis C virus, Huh-7, 72 h) is more than 50000 nM.

Take `CCCOC(=O)[C@H](C)NP(=O)(OC[C@H]1O[C@@H](n2ccc(=O)[nH]c2=O)[C@](C)(N)[C@@H]1O)Oc1ccccc1` (single isomer, unassigned) [Example 24A]: the EC50 (Hepatitis C virus, Huh-7, 72 h) was found to be 2900 nM.

In the case of `CCC[C@H](C)OC(=O)[C@@H](C)NP(=O)(OC[C@H]1O[C@@H](n2ccc(=O)[nH]c2=O)[C@](C)(N)[C@@H]1O)Oc1ccccc1` (single isomer, unassigned) [Example 25A], the EC50 is 4700 nM.
